In ChEMBL document CHEMBL4507272 (2021):

Assays:
Conditions in all cases: Compound concentration 10.0 uM
[1] = target: 5-hydroxytryptamine receptor 5A (Homo sapiens) (UniProt P47898)
[2] = target: 5-hydroxytryptamine receptor 6 (Homo sapiens) (UniProt P50406)
[3] = target: Kappa-type opioid receptor (Homo sapiens) (UniProt P41145)
[4] = target: Sodium-dependent serotonin transporter (Homo sapiens) (UniProt P31645)
[5] = target: Mu-type opioid receptor (Homo sapiens) (UniProt P35372)
[6] = target: Muscarinic acetylcholine receptor M2 (Homo sapiens) (UniProt P08172)
[7] = target: Muscarinic acetylcholine receptor M3 (Homo sapiens) (UniProt P20309)
[8] = target: Histamine H4 receptor (Homo sapiens) (UniProt Q9H3N8)
[9] = target: 5-hydroxytryptamine receptor 1B (Homo sapiens) (UniProt P28222)
[10] = target: Histamine H2 receptor (Homo sapiens) (UniProt P25021)
[11] = target: 5-hydroxytryptamine receptor 2A (Homo sapiens) (UniProt P28223)
[12] = target: D(3) dopamine receptor (Homo sapiens) (UniProt P35462)
[13] = target: Muscarinic acetylcholine receptor M4 (Homo sapiens) (UniProt P08173)
[14] = target: Alpha-2B adrenergic receptor (Homo sapiens) (UniProt P18089)
[15] = target: D(2) dopamine receptor (Homo sapiens) (UniProt P14416)
[16] = target: Alpha-1A adrenergic receptor (Homo sapiens) (UniProt P35348)
[17] = target: 5-hydroxytryptamine receptor 1A (Homo sapiens) (UniProt P08908)
[18] = target: Muscarinic acetylcholine receptor M5 (Homo sapiens) (UniProt P08912)
[19] = target: Alpha-1B adrenergic receptor (Homo sapiens) (UniProt P35368)
[20] = target: Sigma intracellular receptor 2 (Homo sapiens) (UniProt Q5BJF2)
[21] = target: Beta-1 adrenergic receptor (Homo sapiens, UniProt P08588)
[22] = target: 5-hydroxytryptamine receptor 3A (Homo sapiens) (UniProt P46098)
[23] = target: D(4) dopamine receptor (Homo sapiens) (UniProt P21917)
[24] = target: T1, GABA-A receptor; anion channel (Rattus norvegicus) (UniProt O09028+P15431+P18506+P18508+P19969+P20236+P23574+P23576+P28471+P28473+P30191+P62813+P63079+P63138+Q91ZM7+Q9ES14)
[25] = target: D(1B) dopamine receptor (Homo sapiens) (UniProt P21918)
[26] = target: Alpha-2C adrenergic receptor (Homo sapiens) (UniProt P18825)
[27] = target: Delta-type opioid receptor (Homo sapiens) (UniProt P41143)
[28] = target: Alpha-1D adrenergic receptor (Homo sapiens) (UniProt P25100)
[29] = target: Sodium-dependent dopamine transporter (Homo sapiens) (UniProt Q01959)
[30] = target: Beta-2 adrenergic receptor (Homo sapiens) (UniProt P07550)
[31] = target: Beta-3 adrenergic receptor (Homo sapiens) (UniProt P13945)
[32] = target: 5-hydroxytryptamine receptor 7 (Homo sapiens) (UniProt P34969)
[33] = target: 5-hydroxytryptamine receptor 2C (Homo sapiens) (UniProt P28335)
[34] = target: T1, GABA-A receptor; anion channel (Rattus norvegicus); remark: listed apart in the source
[35] = target: Histamine H1 receptor (Homo sapiens) (UniProt P35367)
[36] = target: Alpha-2A adrenergic receptor (Homo sapiens) (UniProt P08913)
[37] = target: Sodium-dependent noradrenaline transporter (Homo sapiens) (UniProt P23975)
[38] = target: 5-hydroxytryptamine receptor 2B (Homo sapiens) (UniProt P41595)

Measured: inhibition

Muscarinic acetylcholine receptor M2 (Homo sapiens), sequence (P08172 whole entry): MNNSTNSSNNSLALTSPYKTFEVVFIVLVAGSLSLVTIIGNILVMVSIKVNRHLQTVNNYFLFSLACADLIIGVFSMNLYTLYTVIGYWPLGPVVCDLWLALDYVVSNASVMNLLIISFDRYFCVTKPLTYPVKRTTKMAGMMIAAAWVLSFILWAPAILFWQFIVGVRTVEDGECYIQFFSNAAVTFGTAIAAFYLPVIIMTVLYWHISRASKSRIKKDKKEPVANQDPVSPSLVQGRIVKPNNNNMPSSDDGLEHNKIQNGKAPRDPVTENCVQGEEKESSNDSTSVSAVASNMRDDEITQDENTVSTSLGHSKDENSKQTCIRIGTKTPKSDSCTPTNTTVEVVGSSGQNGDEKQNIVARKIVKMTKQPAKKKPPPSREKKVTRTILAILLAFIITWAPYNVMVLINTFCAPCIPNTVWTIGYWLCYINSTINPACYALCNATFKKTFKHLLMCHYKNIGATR
5-hydroxytryptamine receptor 5A (Homo sapiens), sequence (P47898 whole entry): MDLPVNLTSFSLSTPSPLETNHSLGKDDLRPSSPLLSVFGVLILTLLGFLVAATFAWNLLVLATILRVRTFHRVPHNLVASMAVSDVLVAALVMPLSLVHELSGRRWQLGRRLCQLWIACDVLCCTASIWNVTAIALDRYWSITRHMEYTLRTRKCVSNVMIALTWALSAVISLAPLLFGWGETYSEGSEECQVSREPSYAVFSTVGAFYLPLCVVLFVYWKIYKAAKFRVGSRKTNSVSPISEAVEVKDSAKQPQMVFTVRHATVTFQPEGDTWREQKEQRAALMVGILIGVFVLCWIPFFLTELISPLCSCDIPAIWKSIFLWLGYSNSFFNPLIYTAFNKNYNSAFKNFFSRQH
Muscarinic acetylcholine receptor M3 (Homo sapiens), sequence (P20309 whole entry, looked up): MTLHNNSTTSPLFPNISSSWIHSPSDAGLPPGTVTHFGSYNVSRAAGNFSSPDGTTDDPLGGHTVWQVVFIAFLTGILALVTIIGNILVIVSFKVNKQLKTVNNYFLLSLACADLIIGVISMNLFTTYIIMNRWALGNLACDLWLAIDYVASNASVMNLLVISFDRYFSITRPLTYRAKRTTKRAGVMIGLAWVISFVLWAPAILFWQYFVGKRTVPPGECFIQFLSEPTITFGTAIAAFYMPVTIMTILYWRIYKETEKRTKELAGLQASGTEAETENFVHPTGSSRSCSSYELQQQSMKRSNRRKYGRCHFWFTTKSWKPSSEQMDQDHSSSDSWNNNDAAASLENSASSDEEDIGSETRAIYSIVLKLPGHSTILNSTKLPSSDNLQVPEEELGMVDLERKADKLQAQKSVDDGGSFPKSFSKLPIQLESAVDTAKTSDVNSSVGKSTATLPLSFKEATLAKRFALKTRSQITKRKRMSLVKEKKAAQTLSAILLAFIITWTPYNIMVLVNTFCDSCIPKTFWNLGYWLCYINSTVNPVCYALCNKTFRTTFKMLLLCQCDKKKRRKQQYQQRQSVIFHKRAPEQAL
Sigma intracellular receptor 2 (Homo sapiens), sequence (Q5BJF2 whole entry): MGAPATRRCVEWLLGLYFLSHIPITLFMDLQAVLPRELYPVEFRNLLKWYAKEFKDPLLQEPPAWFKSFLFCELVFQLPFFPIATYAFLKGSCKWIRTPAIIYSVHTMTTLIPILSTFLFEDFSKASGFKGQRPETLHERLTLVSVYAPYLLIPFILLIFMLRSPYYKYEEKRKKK
Alpha-1A adrenergic receptor (Homo sapiens), sequence (P35348 whole entry): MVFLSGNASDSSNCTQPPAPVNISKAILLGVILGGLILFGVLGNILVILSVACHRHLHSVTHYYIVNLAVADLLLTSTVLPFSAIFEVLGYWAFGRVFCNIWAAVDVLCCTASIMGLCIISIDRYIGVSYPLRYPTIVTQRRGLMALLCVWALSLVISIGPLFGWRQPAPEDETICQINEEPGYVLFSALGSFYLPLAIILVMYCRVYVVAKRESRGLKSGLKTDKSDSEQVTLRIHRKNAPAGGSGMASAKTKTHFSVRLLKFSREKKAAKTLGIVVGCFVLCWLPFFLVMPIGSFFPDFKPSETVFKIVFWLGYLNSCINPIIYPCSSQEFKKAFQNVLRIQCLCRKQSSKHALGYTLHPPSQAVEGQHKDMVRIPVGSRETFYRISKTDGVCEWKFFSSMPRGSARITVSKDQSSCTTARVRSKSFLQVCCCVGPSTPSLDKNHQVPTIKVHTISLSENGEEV
Beta-2 adrenergic receptor (Homo sapiens), sequence (P07550 whole entry, looked up): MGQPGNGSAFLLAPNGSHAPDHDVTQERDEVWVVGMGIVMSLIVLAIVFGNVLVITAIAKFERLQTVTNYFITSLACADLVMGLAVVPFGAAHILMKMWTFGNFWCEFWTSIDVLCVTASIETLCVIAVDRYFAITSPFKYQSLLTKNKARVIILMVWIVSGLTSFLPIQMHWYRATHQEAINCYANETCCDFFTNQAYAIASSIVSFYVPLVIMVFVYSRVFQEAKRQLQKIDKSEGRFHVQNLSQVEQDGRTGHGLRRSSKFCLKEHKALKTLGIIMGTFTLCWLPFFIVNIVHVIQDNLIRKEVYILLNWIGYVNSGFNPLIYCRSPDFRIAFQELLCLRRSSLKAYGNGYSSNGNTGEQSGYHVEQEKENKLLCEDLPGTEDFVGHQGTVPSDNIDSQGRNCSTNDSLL
D(4) dopamine receptor (Homo sapiens), sequence (P21917 whole entry): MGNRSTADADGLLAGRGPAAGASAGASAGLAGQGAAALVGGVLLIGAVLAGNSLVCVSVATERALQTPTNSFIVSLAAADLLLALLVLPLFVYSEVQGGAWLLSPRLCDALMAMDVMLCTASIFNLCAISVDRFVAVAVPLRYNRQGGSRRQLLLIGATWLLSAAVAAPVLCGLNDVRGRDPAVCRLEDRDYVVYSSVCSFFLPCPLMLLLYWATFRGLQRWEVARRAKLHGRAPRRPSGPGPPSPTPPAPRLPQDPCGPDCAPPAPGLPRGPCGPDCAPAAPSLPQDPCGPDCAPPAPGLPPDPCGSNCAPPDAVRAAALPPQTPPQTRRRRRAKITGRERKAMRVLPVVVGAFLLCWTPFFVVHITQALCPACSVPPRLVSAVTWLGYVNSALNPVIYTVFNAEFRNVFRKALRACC
Histamine H4 receptor (Homo sapiens), sequence (Q9H3N8 whole entry): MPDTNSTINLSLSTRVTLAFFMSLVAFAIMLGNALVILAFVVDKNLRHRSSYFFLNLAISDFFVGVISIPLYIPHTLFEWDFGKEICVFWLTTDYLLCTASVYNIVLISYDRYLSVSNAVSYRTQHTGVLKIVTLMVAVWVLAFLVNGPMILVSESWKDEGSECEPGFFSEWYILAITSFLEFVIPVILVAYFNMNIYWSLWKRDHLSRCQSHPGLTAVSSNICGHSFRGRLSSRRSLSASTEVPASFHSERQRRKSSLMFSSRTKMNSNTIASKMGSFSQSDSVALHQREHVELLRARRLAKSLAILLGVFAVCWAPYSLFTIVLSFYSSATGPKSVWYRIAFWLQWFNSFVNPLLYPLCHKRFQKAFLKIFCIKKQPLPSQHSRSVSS
D(1B) dopamine receptor (Homo sapiens), sequence (P21918 whole entry): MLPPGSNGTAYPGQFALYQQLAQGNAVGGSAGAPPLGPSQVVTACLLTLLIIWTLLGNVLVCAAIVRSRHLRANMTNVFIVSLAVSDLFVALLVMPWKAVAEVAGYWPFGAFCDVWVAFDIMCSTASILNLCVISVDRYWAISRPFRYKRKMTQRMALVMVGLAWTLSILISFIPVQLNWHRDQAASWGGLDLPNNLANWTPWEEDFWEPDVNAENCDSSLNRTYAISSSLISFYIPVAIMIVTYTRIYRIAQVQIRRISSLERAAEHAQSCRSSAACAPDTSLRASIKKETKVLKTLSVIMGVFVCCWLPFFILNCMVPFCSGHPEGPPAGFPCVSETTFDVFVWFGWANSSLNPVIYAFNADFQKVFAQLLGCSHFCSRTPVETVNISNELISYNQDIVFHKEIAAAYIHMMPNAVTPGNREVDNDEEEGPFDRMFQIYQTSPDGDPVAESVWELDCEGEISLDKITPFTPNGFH
Sodium-dependent serotonin transporter (Homo sapiens), sequence (P31645 whole entry, looked up): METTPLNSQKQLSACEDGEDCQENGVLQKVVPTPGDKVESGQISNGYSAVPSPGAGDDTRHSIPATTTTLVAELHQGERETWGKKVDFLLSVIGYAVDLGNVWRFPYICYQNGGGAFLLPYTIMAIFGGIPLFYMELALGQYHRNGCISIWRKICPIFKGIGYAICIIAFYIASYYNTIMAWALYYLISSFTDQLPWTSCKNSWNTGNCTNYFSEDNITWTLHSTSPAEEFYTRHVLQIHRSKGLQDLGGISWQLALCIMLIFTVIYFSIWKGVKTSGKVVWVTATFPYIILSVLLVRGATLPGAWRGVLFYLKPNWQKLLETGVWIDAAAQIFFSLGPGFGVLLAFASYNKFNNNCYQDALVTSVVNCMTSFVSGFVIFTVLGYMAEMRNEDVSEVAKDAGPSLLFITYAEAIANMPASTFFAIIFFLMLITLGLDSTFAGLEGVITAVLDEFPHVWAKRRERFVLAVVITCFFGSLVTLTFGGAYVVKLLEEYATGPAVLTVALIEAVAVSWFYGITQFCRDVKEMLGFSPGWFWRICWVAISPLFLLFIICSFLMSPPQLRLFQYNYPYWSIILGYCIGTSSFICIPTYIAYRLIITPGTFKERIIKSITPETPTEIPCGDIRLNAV
Alpha-1B adrenergic receptor (Homo sapiens), sequence (P35368 whole entry): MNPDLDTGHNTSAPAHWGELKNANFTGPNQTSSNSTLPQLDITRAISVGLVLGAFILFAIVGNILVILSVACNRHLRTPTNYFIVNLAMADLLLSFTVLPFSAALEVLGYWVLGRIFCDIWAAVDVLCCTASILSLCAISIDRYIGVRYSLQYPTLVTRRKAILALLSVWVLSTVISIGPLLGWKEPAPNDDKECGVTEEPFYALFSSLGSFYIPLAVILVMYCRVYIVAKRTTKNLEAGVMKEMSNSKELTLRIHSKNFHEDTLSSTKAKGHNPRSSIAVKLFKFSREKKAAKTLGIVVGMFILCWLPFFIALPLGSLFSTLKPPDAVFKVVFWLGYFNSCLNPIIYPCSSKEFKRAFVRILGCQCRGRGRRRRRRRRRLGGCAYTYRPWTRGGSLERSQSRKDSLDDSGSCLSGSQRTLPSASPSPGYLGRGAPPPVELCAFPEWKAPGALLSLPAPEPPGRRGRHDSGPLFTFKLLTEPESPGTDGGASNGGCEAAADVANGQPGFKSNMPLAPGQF

CC(=O)C1=C(C)N(c2cccc(C(F)(F)F)c2)C(=O)N[C@H]1c1ccc(C#N)nc1
inactive: [1] 8.86% | [2] 14.9% | [3] -8.67% | [4] 2.85% | [5] 2.02% | [6] -9.21% | [7] 27.3% | [8] -0.78% | [9] 6.75% | [10] 3.4% | [11] -6.25% | [12] -6.43% | [13] 2.88% | [14] 11.8% | [15] -1.53% | [16] -5.26% | [17] 3.63% | [18] 2.19% | [19] -8.1% | [20] 20.9% | [21] 8.09% | [22] 23.7% | [23] 5.84% | [24] 14.7% | [25] 5.12% | [26] 11% | [27] 4.95% | [28] 7.7% | [29] 1.88% | [30] 21.6% | [31] 17.2% | [32] 13.9% | [33] 29% | [34] -5.84% | [35] 5.28% | [36] -8.89% | [37] -8.06% | [38] 15.8%
